# Legend:
# [1] = storage at ambient temperature and pressure (crystalline form conversion); type: physicochemical
# [2] = heating of the crystalline form at about 50° C.; type: physicochemical; settings: heating at about 50° C.
# [3] = among the forms of U.S. Pat. No. 6,413,969; cited from earlier work
# [4] = room temperature; among the forms of U.S. Pat. No. 6,413,969; cited from earlier work
# [5] = compared with the hemihydrate; cited from earlier work
# [6] = prolonged (e.g. 2 months) storage at ambient temperature and pressure
structure (smiles),measurement,setting,value
"COc1c(N2CCNC(C)C2)c(F)cc2c(=O)c(C(=O)O)cn(C3CC3)c12 (racemic) [form L, (±) 1-cyclopropyl-6-fluoro-1,4-dihydro-8-methoxy-7-(3-methyl-1-piperazinyl)-4-oxo-3-quinolinecarboxylic acid]",crystalline form after prolonged storage,[1]; [6],converts to form Ω
"COc1c(N2CCNC(C)C2)c(F)cc2c(=O)c(C(=O)O)cn(C3CC3)c12 (racemic) [form M, (±) 1-cyclopropyl-6-fluoro-1,4-dihydro-8-methoxy-7-(3-methyl-1-piperazinyl)-4-oxo-3-quinolinecarboxylic acid]",crystalline form after prolonged storage,[1]; [6],converts to form T2RP (hemihydrate)
"COc1c(N2CCNC(C)C2)c(F)cc2c(=O)c(C(=O)O)cn(C3CC3)c12 (racemic) [form P, (±) 1-cyclopropyl-6-fluoro-1,4-dihydro-8-methoxy-7-(3-methyl-1-piperazinyl)-4-oxo-3-quinolinecarboxylic acid]",crystalline form after heating,[2],results in gatifloxacin form T1
same,crystalline form after prolonged storage,[1]; prolonged (e.g. 1 month) storage at ambient temperature and pressure,converts to gatifloxacin sesquihydrate
"COc1c(N2CCNC(C)C2)c(F)cc2c(=O)c(C(=O)O)cn(C3CC3)c12 (stereo not shown) [pentahydrate, gatifloxacin]",thermodynamic stability,[3],most thermodynamically stable form
same,aqueous solubility,[4],lowest
"COc1c(N2CCNC(C)C2)c(F)cc2c(=O)c(C(=O)O)cn(C3CC3)c12 (stereo not shown) [sesquihydrate, gatifloxacin]",stability in manufacturing,[5],more stable

# From patent US7396839B2, “Crystalline forms of gatifloxacin” (Teva Pharmaceuticals USA, Inc., priority 2002, dated 2008)
